# Experimental data taken from patent US10787443B2, “RAF-degrading conjugate compounds” (ZAMBONI CHEM SOLUTIONS INC., priority 2017, dated 2020).
# Assays:
# [1] = tested on: GST-Braf kinase domain and biotinylated E3 substrate adapter (VHL/EloB/EloC complex or CRBN318-425); experiment: Dimerization assay (AlphaScreen/AlphaLisa), RAF/E3 dimerization; type: binding; settings: Table 17; relative value; compounds 4 fold serial dilutions from 20 μM
# [2] = target: T1, CRAF (CRAF fusion protein with a fluorescent protein) in Calu-6 cells (Homo sapiens, UniProt P04049); experiment: Degradation assay, fluorescent CRAF fusion protein levels in Calu-6 cells (IncuCyte S3); type: cell-based; settings: fluorescence/confluence
# T1 construct: fluorescent protein (green); expressed in transfected cells; host or cells: Calu-6
# Procedure: Calu-6 cells were stably transfected with a CRAF fusion protein with a fluorescent protein attached to the C-terminus of CRAF in order to monitor protein levels via fluorescence. Cells were seeded into a 96-well plate and allowed to adhere overnight. The next day cells are treated with compounds at the doses indicated in the table below and analyzed over time. Data was collected by monitoring Fluorescent CRAF protein levels an IncuCyte S3 Live Cell Analysis System (Essen BioScience). […] Calu6_CRAF fusion protein cells are imaged and analyzed using an Incucyte S3 live-cell analysis system (Essen Biosciences). Fluorescence signal is due to expression of the fluorescent protein covalently fused to the C-terminus of CRAF and degradation is assessed by measuring fluorescence/confluence (˜cell number) after treatment with compounds of the present disclosure. Phase contrast images are analyzed using Incucyte S3 software. Percent confluence is calculated using a phase contrast mask to quantify the area of the image occupied by the Calu6_CRAF fusion protein cells. Fluorescent images are analyzed using Incucyte S3 software. Green Corrected Units (GCU) is calculated using a fluorescence mask to quantify the area of the image occupied by green fluorescent signal and the intensity of the signal. […] As discussed above, degradation is measured as a function of fluorescence/confluence.
# [3] = target: BRAF/VHL (Homo sapiens, UniProt P15056+P40337); settings: FIG. 12; various concentrations
# Chain of BRAF/VHL (P15056 457-717 limits assumed): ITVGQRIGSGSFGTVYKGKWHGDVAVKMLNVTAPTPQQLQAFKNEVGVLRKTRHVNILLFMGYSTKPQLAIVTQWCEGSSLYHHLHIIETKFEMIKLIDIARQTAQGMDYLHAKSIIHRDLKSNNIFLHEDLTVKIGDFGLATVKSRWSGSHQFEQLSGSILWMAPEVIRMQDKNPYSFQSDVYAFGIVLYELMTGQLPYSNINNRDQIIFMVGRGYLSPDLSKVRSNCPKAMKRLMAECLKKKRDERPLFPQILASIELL
# Chain of BRAF/VHL (P40337 54-213 limits assumed): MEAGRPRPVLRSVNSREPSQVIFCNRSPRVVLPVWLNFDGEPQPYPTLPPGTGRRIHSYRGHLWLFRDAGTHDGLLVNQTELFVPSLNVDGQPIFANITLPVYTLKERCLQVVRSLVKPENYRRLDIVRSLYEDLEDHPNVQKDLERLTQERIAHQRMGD
# Chain of BRAF/VHL (Q15370 whole entry partner): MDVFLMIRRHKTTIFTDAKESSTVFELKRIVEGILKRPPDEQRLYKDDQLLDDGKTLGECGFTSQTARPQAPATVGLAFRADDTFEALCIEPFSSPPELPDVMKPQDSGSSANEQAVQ
# Chain of BRAF/VHL (Q15369 17-112 partner limits assumed): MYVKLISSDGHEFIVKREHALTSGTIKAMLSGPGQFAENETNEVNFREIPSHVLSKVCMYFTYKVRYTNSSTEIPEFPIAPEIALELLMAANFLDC
# T1 sequence (P04049 whole entry, the tested form may be a part): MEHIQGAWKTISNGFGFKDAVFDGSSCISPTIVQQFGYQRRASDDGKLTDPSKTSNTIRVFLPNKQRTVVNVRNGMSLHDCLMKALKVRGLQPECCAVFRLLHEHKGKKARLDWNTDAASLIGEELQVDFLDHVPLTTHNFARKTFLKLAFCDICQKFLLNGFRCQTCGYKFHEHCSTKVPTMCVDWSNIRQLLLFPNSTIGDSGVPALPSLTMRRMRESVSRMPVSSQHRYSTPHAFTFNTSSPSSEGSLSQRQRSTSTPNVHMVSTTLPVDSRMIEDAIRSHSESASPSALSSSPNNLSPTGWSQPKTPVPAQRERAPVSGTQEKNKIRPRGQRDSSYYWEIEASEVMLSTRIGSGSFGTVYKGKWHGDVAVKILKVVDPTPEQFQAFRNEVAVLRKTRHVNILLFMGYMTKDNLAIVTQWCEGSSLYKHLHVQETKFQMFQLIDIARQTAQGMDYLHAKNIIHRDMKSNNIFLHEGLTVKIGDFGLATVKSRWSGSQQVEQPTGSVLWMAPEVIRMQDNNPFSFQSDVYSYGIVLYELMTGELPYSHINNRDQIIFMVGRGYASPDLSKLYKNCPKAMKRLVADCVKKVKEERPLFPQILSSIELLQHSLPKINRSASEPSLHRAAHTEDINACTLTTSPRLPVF
SMILES,RAF/E3 Dimerization [1],"CRAF degradation in Calu6 cells over time ([2]; 2 μM, FIG. 10)","CRAF degradation in Calu6 cells over time ([2]; 5 μM, FIG. 11)","CRAF degradation in Calu6 cells over time ([2]; 15 μM, FIG. 6)",BRAF/VHL dimerization [3]
"Cc1ncc(NC(=O)c2cccc(C(F)(F)F)c2)cc1-c1cnc(OCCOCCOCC(=O)NCCCCCCc2cccc3c2CN(C2CCC(=O)NC2=O)C3=O)c(N2CCOCC2)c1 (stereo not shown) [Compound 2.015, N-(6′-(2-(2-(2-((6-(2-(2,6-dioxopiperidin-3-yl)-1-oxoisoindolin-4-yl)hexyl)amino)-2-oxoethoxy)ethoxy)ethoxy)-2-methyl-5′-morpholino-[3,3′-bipyridin]-5-yl)-3-(trifluoromethyl)benzamide]",+++ (50% > RAF/E3 Dimerization ≥ 25),CRAF degradation,–,–,–
"Cc1ncc(NC(=O)c2cccc(C(F)(F)F)c2)cc1-c1cnc(OCCOCCOCCOCCOCC(=O)NCCOCCCc2cccc3c2CN(C2CCC(=O)NC2=O)C3=O)c(N2CCOCC2)c1 (stereo not shown) [Compound 2.016, N-(2-(3-(2-(2,6-dioxopiperidin-3-yl)-1-oxoisoindolin-4-yl)propoxy)ethyl)-14-((2′-methyl-5-morpholino-5′-(3-(trifluoromethyl)benzamido)-[3,3′-bipyridin]-6-yl)oxy)-3,6,9,12-tetraoxatetradecan-1-amide]",+++++ (RAF/E3 Dimerization ≥75%),–,CRAF degradation,–,–
"Cc1ncc(NC(=O)c2cccc(C(F)(F)F)c2)cc1-c1cnc(OCCOCCOCCOCC(=O)NCCOCCCc2cccc3c2C(=O)N(C2CCC(=O)NC2=O)C3=O)c(N2CCOCC2)c1 (stereo not shown) [Compound 2.021, N-(6′-((18-(2-(2,6-dioxopiperidin-3-yl)-1,3-dioxoisoindolin-4-yl)-11-oxo-3,6,9,15-tetraoxa-12-azaoctadecyl)oxy)-2-methyl-5′-morpholino-[3,3′-bipyridin]-5-yl)-3-(trifluoromethyl)-benzamide]",++ (25% > RAF/E3 Dimerization ≥ 5%),–,–,CRAF degradation,–
"Cc1ncc(NC(=O)c2cccc(C(F)(F)F)c2)cc1-c1cnc(OC2CCOCC2)c(N2CCOCC2)c1 [RAF709, reference compound]",–,–,–,–,does not cause dimerization
